The values below come from patent US10188634B2, “3-(3H-imidazo[4,5-C]pyridin-2-yl)-1 H-pyrazolo[4,3-B]pyridines and therapeutic uses thereof” (Samumed, LLC, priority 2015, dated 2019).

Assay type in all cases: cell-based
Assay [1] relates to Wnt activity (Sp5-Luc reporter, human Sp5 promoter with eight TCF/LEF binding sites) in SW480 colon carcinoma cells. As to the kind of experiment: Screening assay for Wnt activity: Sp5-Luc reporter gene assay in SW480 cells. The following applies: 10-point dose-response starting from 10 μM, overnight incubation. The text has this: The screening assay for Wnt activity is described as follows. Reporter cell lines can be generated by stably transducing cancer cell lines (e.g., colon cancer) or primary cells (e.g., IEC-6 intestinal cells) with a lentiviral construct that includes a Wnt-responsive promoter driving expression of the firefly luciferase gene.
SW480 colon carcinoma cells were transduced with a lentiviral vector expressing luciferase with a human Sp5 promoter consisting of a sequence of eight TCF/LEF binding sites. SW480 cells stably expressing the Sp5-Luc reporter gene and a hygromycin resistance gene were selected by treatment with 150 μg/mL of hygromycin for 7 days. These stably transduced SW480 cells were expanded in cell culture and used for all further screening activities. Each compound was dissolved in DMSO as a 10 mM stock and used to prepare compound source plates. Serial dilution (1:3, 10-point dose-response curves starting from 10 μM) and compound transfer was performed using the ECHO 550 (Labcyte, Sunnyvale, Calif.) into 384-well white solid bottom assay plates (Greiner Bio-One) with appropriate DMSO backfill for a final DMSO concentration of 0.1%. For Sp5-Luc reporter gene assays, the cells were plated at 4,000 cells/well in 384-well plates with medium containing 1% fetal bovine serum and incubated overnight at 37° C. and 5% CO2. Following incubation, 20 μl of BrightGlo luminescence reagent (Promega) was added to each well of the 384-well assay plates. The plates were placed on an orbital shaker for 2 min and then luminescence was quantified using the Envision (Perkin Elmer) plate reader. Readings were normalized to DMSO only treated cells, and normalized activities were utilized for EC50 calculations using the dose-response log (inhibitor) vs. response -variable slope (four parameters) nonlinear regression feature available in GraphPad Prism 5.0 (or Dotmatics). For EC50 of >10 μM, the percent inhibition at 10 μM is provided.
On the technique in general: A reporter such as luciferase makes a cellular process visible.

A further assay has as its system SW480 colon cancer cells. As to the kind of experiment: Cell viability assay (CellTiter-Blue) in SW480 colon cancer cells. The following applies: Homo sapiens, 96 h, four days incubation, CellTiter-Blue cell viability. How it is done: Representative compounds were screened using the following assay procedure to assess the effect on cell viability as described below.
Each compound was dissolved in DMSO as a 10 mM stock and used to prepare compound source plates. Serial dilution (1:3, 8-point dose-response curves from 10 μM to 0.004 μM) and compound transfer was performed using the ECHO 550 (Labcyte, Sunnyvale, Calif.) into 96-well clear bottom, black-walled plates (Corning-Costar).
Approximately 2×10^3 SW480 colon cancer cells were seeded into each well and allowed to incubate in the presence or absence of compound for four days at 37° C./5% CO2. Eight replicates of DMSO-treated cells served as controls and cells treated with compound were performed in duplicate.
After incubation, 20 μL of CellTiter-Blue (Promega) was added to each well allowed to incubate for approximately 3 hours. This reagent was a buffered solution which contains resazurin, metabolically active cells were able to reduce rezarurin (blue) into resorufin (pink) which was highly fluorescent. This measured fluorescence was used as a readout for cell viability.
After incubation, the plates were read at Ex 560 nm Em 590 nm (Cytation 3, BioTek). Dose-response curves were generated and EC50 concentration values were calculated using non-linear regression curve fit in the GraphPad Prism (San Diego, Calif.) or Dotmatics' Studies Software (Bishops Stortford, UK). For EC50 of >10 μM, the percent inhibition at 10 μM is provided.
Background: The colour change of resazurin is a common sign of viable cells or microbes.

Assay [2] concerns LL29 cells (primary human fibroblasts derived from IPF patients) treated with TGF-β1, α-smooth muscle actin. As to the kind of experiment: Inhibition of the fibrotic process: αSMA staining in TGF-β1 treated primary human fibroblasts from IPF patients (LL29 cells). The following applies: Fibroblast, 96 h, LL29 cells treated with TGF-β1 (20 ng/mL), 4 days. From the text:
Representative compounds were screened using primary human fibroblasts (derived from IPF patients) treated with TGF-β1 to determine their ability to inhibit the fibrotic process.
Human Fibroblast Cell Culture: Primary human fibroblasts derived from IPF patients (LL29 cells) [^1Xiaoqiu Liu, et.al., “Fibrotic Lung Fibroblasts Show Blunted Inhibition by cAMP Due to Deficient cAMP Response Element-Binding Protein Phosphorylation”, Journal of Pharmacology and Experimental Therapeutics (2005), 315(2), 678-687; ^2Watts, K. L., et.al., “RhoA signaling modulates cyclin D1 expression in human lung fibroblasts; implications for idiopathic pulmonary fibrosis”, Respiratory Research (2006), 7(1), 88] were obtained from American Type Culture Collection (ATCC) and expanded in F12 medium supplemented with 15% Fetal Bovine Serum and Penicillin/Streptomycin.
Compound Screening: Each compound was dissolved in DMSO as a 10 mM stock and used to prepare compound source plates. […] LL29 cells are plated at 1,500 cells/well in 80 μL/well F12 medium supplemented with 1% Fetal Bovine Serum. One hour after addition of the cells, TGF-β1 (Peprotech; 20 ng/mL) was added to the plates to induce fibrosis (ref. 1 and 2 above). Wells treated with TGF-β1 and containing DMSO were used as controls. Cells were incubated at 37° C. and 5% CO2 for 4 days. Following incubation for 4 days, SYTOX green nucleic acid stain (Life Technologies [Thermo Fisher Scientific]) was added to the wells at a final concentration of 1 μM and incubated at room temperature for 30 min. Cells were then fixed using 4% formaldehyde (Electron Microscopy Sciences), washed 3 times with PBS followed by blocking and permeabilization using 3% Bovine Serum Albumin (BSA; Sigma) and 0.3% Triton X-100 (Sigma) in PBS. Cells were then stained with antibody specific to α-smooth muscle actin (αSMA; Abcam) (ref. 1 and 2 above) in 3% Bovine Serum Albumin (BSA; Sigma) and 0.3% Triton X-100 (Sigma) in PBS, and incubated overnight at 4° C. Cells were then washed 3 times with PBS, followed by incubation with Alexa Flor-647 conjugated secondary antibody (Life Technologies [Thermo Fisher Scientific]) and DAPI at room temperature for 1 hour. Cells were then washed 3 times with PBS and plates were sealed for imaging. αSMA staining was imaged by excitation at 630 nm and emission at 665 nm and quantified using the Compartmental Analysis program on the CellInsight CX5 (Thermo Scientific). Dead or apoptotic cells were excluded from analysis based on positive SYTOX green staining. % of total cells positive for αSMA were counted in each well and normalized to the average of 11 wells treated with TGF-β1 on the same plate using Dotmatics' Studies Software. The normalized averages (fold change over untreated) of 3 replicate wells for each compound concentration were used to create dose-responses curves and EC50 values were calculated using non-linear regression curve fit in the Dotmatics' Studies Software. For EC50 of >10 μM, the percent inhibition at 10 μM is provided.

A further assay concerns IL-6 in THP-1 cells. As to the kind of experiment: Inhibition of IL-6 in LPS-stimulated THP-1 human monocyte cells (HTRF). The note with it: IL-6 HTRF; for EC50: 500 ng/mL LPS, 22 hours. How it is done:
Human Monocyte Cell Culture: Human monocyte cell line (THP-1 cells; Catalog # TIB-202, ATCC, Manassas, Va.) were cultured in Roswell Park Memorial Institute (RPMI) 1640 Medium (Catalog #21870-100, Buffalo, N.Y.) with 1% L-glutamine, 1% HEPES, 1% Sodium Pyruvate, 2% Sodium Bicarbonate supplemented with 100 units/mL penicillin, 50 μg/mL streptomycin, 2-mercaptoethanol (0.05 mM) [basal medium] and 10% fetal bovine serum (Catalog #16140089, Life Technologies, Carlsbad, Calif.) at 37° C. and 5% CO2.
Compound Screening: THP-1 cells were cultured in basal media with 1% FBS for 24 hours before the start of the assay. Each compound was dissolved in DMSO as a 10 mM stock and used to prepare compound source plates. Serial dilution (1:3, 10-point dose-response curves starting from 10 μM) and compound transfer was performed using the ECHO 550 (Labcyte, Sunnyvale, Calif.) into 384-well white low volume assay plates (Greiner Bio-One) with appropriate DMSO backfill for a final DMSO concentration of 0.1%. THP-1 cells were plated at 5000 cells/well in the 384-well plates and incubated at 37° C. for 2 h. 500 ng/mL of LPS was added after 2 hours and cells were incubated for another 22 hours at 37° C. Plates were spun in a centrifuge for 1 minute at […] and a mixture of anti-IL6 XL665, and anti-IL6 Cryptate diluted in reconstitution buffer (Cisbio Inc.) was added to each well. Following incubation for 3 hrs at room temperature, Homogeneous Time-Resolved Fluorescence (HTRF) was measured using the Envision (Perkin Elmer) at 665 nm and […]. The ratio of fluorescence at 665 nm to 620 nm was used as a readout for IL6 quantification. All samples were processed in duplicate. Readings were normalized to DMSO treated cells and normalized activities were utilized for EC50 calculations using the dose-response log (inhibitor) vs. response -variable slope (four parameters) nonlinear regression feature available in GraphPad Prism 5.0 (or Dotmatics). For EC50 of >10 μM, the percent inhibition at 10 μM is provided.

The term EC50 denotes the midpoint of the concentration-response curve. Take `Fc1ccccc1-c1cncc2[nH]c(-c3n[nH]c4ccc(-c5cncc(CNCC6CCCC6)c5)nc34)nc12` [Compound 81, 1-Cyclopentyl-N-((5-(3-(7-(2-fluorophenyl)-3H-imidazo[4,5-c]pyridin-2-yl)-1H-pyrazolo[4,3-b]pyridin-5-yl)pyridin-3-yl)methyl)methanamine]: the EC50 came out at 1260 nM in assay [1], 1390 nM with SW480 colon cancer cells, 1940 nM in assay [2] and 3530 nM in the assay on IL-6 in THP-1 cells.
On the same counts, the results for `COc1cncc(-c2ccc3[nH]nc(-c4nc5c(-c6ccoc6)cncc5[nH]4)c3n2)c1` [Compound 648, 3-(7-(Furan-3-yl)-3H-imidazo[4,5-c]pyridin-2-yl)-5-(5-methoxylpyridin-3-yl)-1H-pyrazolo[4,3-b]pyridine] are 849 nM, 1770 nM, 404 nM and 7040 nM.
For `COc1cncc(-c2ccc3[nH]nc(-c4nc5c(N6CCCCC6)cncc5[nH]4)c3n2)c1` [Compound 584, 5-(5-Methoxylpyridin-3-yl)-3-(7-(piperidin-1-yl)-3H-imidazo[4,5-c]pyridin-2-yl)-1H-pyrazolo[4,3-b]pyridine] the same measures were 3390 nM, 2180 nM, 1650 nM and 44 nM.
Regarding `CN(C)CCNc1cc(F)cc(-c2cncc3[nH]c(-c4n[nH]c5ccc(-c6ccccn6)nc45)nc23)c1` [Compound 448, N^1-(3-Fluoro-5-(2-(5-(pyridin-2-yl)-1H-pyrazolo[4,3-b]pyridin-3-yl)-3H-imidazo[4,5-c]pyridin-7-yl)phenyl)-N^2,N^2-dimethylethane-1,2-diamine], the EC50 in assay [1] amounted to 1710 nM; in the assay on SW480 colon cancer cells, 2140 nM; in assay [2], 941 nM; in the assay with IL-6 in THP-1 cells, 1680 nM.
With `CN1CCN(c2cncc3[nH]c(-c4n[nH]c5ccc(-c6cncc(OC7CCCCC7)c6)nc45)nc23)CC1` [Compound 611, 5-(5-(Cyclohexyloxy)pyridin-3-yl)-3-(7-(4-methylpiperazin-1-yl)-3H-imidazo[4,5-c]pyridin-2-yl)-1H-pyrazolo[4,3-b]pyridine], the EC50 in assay [1] was found to be 1920 nM; in the assay with SW480 colon cancer cells, 2540 nM; in assay [2], 1330 nM; in the assay on IL-6 in THP-1 cells, 8780 nM.
Broadly, the inhibition is the share of the control response that was lost under treatment. In the case of `c1ccc(CNCc2cncc(-c3ccc4[nH]nc(-c5nc6c(-c7ccsc7)cncc6[nH]5)c4n3)c2)cc1` [Compound 276, N-Benzyl-1-(5-(3-(7-(thiophen-3-yl)-3H-imidazo[4,5-c]pyridin-2-yl)-1H-pyrazolo[4,3-b]pyridin-5-yl)pyridin-3-yl)methanamine], the EC50 in assay [1] is 3460 nM; with SW480 colon cancer cells, 1180 nM; in assay [2], 7470 nM; with IL-6 in THP-1 cells, > 10000 nM. Also, the inhibition at 10 µM with IL-6 in THP-1 cells (LPS, at 10 μM, read-out: percent inhibition in brackets (given for EC50 >10 μM)) stood at 39.9%.
`FC1(F)CCN(Cc2cncc(-c3ccc4[nH]nc(-c5nc6c(N7CCCCC7)cncc6[nH]5)c4n3)c2)C1` [Compound 194, 5-(5-((3,3-Difluoropyrrolidin-1-yl)methyl)pyridin-3-yl)-3-(7-(piperidin-1-yl)-3H-imidazo[4,5-c]pyridin-2-yl)-1H-pyrazolo[4,3-b]pyridine]: the concentration giving a half-maximal response (EC50) worked out at 2330 nM in assay [1], 3590 nM in the assay on SW480 colon cancer cells, 2710 nM in assay [2] and 6550 nM in the assay with IL-6 in THP-1 cells.
On to `O=C(Nc1cncc(-c2ccc3[nH]nc(-c4nc5c(N6CCCCC6)cncc5[nH]4)c3n2)c1)C1CC1` [Compound 188, N-(5-(3-(7-(Piperidin-1-yl)-3H-imidazo[4,5-c]pyridin-2-yl)-1H-pyrazolo[4,3-b]pyridin-5-yl)pyridin-3-yl)cyclopropanecarboxamide], for which the concentration for a half-maximal effect (EC50) in assay [1] amounted to 9700 nM; in the assay with SW480 colon cancer cells, 4420 nM; in assay [2] it was 4940 nM; in the assay on IL-6 in THP-1 cells it was 1400 nM.
